# Laboratory results reported in article PMC6429263, “Evolution and Antibacterial Evaluation of 8-Hydroxy-cycloberberine Derivatives as a Novel Family of Antibacterial Agents Against MRSA” (Molecules, 2019).
# Where two headings read alike, the source gives them in different places.
# Legend:
# S.h ATCC 35982 = assay: MIC, agar dilution, S.h ATCC 35982; assay type: cell-based; conditions: Staphylococcus hominis, ATCC35982
# MRSA 13-18 = assay: MIC, agar dilution, MRSA 13-18; assay type: cell-based; conditions: Staphylococcus aureus
# MSSA 16-1 = assay: MIC, agar dilution, MSSA 16-1 (clinical isolate); assay type: cell-based, S. aureus; conditions: Staphylococcus aureus
# MRSA ATCC 43300 = assay: MIC, agar dilution, MRSA ATCC 43300; assay type: cell-based; conditions: Staphylococcus aureus
# MSSE ATCC 12228 = assay: MIC, agar dilution, MSSE ATCC 12228; assay type: cell-based, S. epidermidis; conditions: Staphylococcus epidermidis, ATCC12228
# MRSA 13-23 = assay: MIC, agar dilution, MRSA 13-23; assay type: cell-based; conditions: Staphylococcus aureus
# VISA ATCC 700699 = assay: MIC, agar dilution, VISA ATCC 700699; assay type: cell-based; conditions: Staphylococcus aureus
# MRSA ATCC-B AA-1708 = assay: MIC, agar dilution, MRSA ATCC-BAA-1708 (mupA positive); assay type: cell-based; conditions: Staphylococcus aureus
# MRSE 13-3 = assay: MIC, agar dilution, MRSE 13-3; assay type: cell-based, S. epidermidis; conditions: Staphylococcus epidermidis
# MRSE 16-5 = assay: MIC, agar dilution, MRSE 16-5; assay type: cell-based, S. epidermidis; conditions: Staphylococcus epidermidis
# MSSA ATCC 29213 = assay: MIC, agar dilution, MSSA ATCC 29213; assay type: cell-based, S. aureus; conditions: Staphylococcus aureus
# MRSA 16-34 = assay: MIC, agar dilution, MRSA 16-34; assay type: cell-based; conditions: Staphylococcus aureus
# VISA ATCC 700698 = assay: MIC, agar dilution, VISA ATCC 700698; assay type: cell-based; conditions: Staphylococcus aureus
# S.s ATCC 15305 = assay: MIC, agar dilution, S.s ATCC 15305; assay type: cell-based; conditions: Staphylococcus saprophyticus, ATCC15305
# MRSA ATCC -BAA-976 = assay: MIC, agar dilution, MRSA ATCC-BAA-976 (clindamycin-resistant); assay type: cell-based; conditions: Staphylococcus aureus
# MSSA 15 = assay: MIC, agar dilution, MSSA 15 (clinical isolate); assay type: cell-based, S. aureus; conditions: Staphylococcus aureus
# MSSE 16-5 = assay: MIC, agar dilution, MSSE 16-5 (clinical isolate); assay type: cell-based, S. epidermidis; conditions: Staphylococcus epidermidis
# [1] = system: drug-susceptible strains: MSSA, MSSE, S. saprophyticus, S. hominis; assay: MIC across the panel of drug-susceptible Gram-positive strains; assay type: cell-based; conditions: drug-susceptible Gram-positive strains of Table 1; for MIC: 18 h, read-out: MICs (range over strains)
# Description: SAR study for antibacterial activity against drug-susceptible Gram-positive bacteria was initially carried out, taking Lev and compound 1 as reference drugs. […] Bacteria strains used in this study were from the ATCC collection and clinical isolates in Chinese hospitals. The influence of the methylenedioxy ring was explored first, and compounds 6 and 10 were created and tested.
# MSSA/MRSA tested strains = system: MSSA/MRSA tested strains; parameters: method as in PMID 29795764, PMID 30145374; conditions: cited from earlier work
# Stability in whole blood = assay type: in vitro ADME, SD rat; conditions: for Rr (remaining ratio): whole blood, 37 °C
# Protocol: Fresh blood was collected on the day of experiment from SD rats and pre-warmed in a water bath at 37 °C. 10 mM test compound or Ems stock solutions were prepared in DMSO, and then diluted with 45% MeOH/H2O to achieve 100 μM dosing solutions. Each dosing solution (2 μL) was incubated with 98 µL of blank blood at 37 °C in water bath for 0, 0.5, 1, 3, 7 and 24 h, respectively. At the end of incubation, for each sample, 100 μL water and 800 μL of stop solution (200 ng/mL tolbutamide plus 20 ng/mL buspirone in ACN) were immediately added to precipitate protein and centrifuge at 4,000 rpm for 20 min. An aliquot of supernatant (100 μL) was then extracted, mixed with 200 μL H2O and then shook at 800 rpm for about 10 min before submitting to LC-MS/MS analysis. The experiment was repeated two times.
# [2] = S. hominis ATCC 35982, read-out: MIC
# [3] = MSSA 16-1, isolated from patients in China, read-out: MIC
# [4] = VISA ATCC 700699, read-out: MIC
# [5] = MRSA ATCC-BAA-1708, mupA positive (mupirocin resistance), read-out: MIC
# [6] = VISA ATCC 700698, read-out: MIC
# [7] = S. saprophyticus ATCC 15305, read-out: MIC
# [8] = MRSA ATCC-BAA-976, clindamycin-resistant S. aureus, read-out: MIC
# [9] = MSSA 15, isolated from patients in China, read-out: MIC
# [10] = MSSE 16-5, isolated from patients in China, read-out: MIC
SMILES,MIC (S.h ATCC 35982; [2]),"MIC (MRSA 13-18; MRSA 13-18, read-out: MIC)",MIC (MSSA 16-1; [3]),"MIC (MRSA ATCC 43300; MRSA ATCC 43300, read-out: MIC)","MIC (MSSE ATCC 12228; MSSE ATCC 12228, read-out: MIC)","MIC (MRSA 13-23; MRSA 13-23, read-out: MIC)",MIC (VISA ATCC 700699; [4]),MIC (MRSA ATCC-B AA-1708; [5]),"MIC (MRSE 13-3; MRSE 13-3, read-out: MIC)","MIC (MRSE 16-5; MRSE 16-5, read-out: MIC)","MIC (MSSA ATCC 29213; MSSA ATCC 29213, read-out: MIC)","MIC (MRSA 16-34; MRSA 16-34, read-out: MIC)",MIC (VISA ATCC 700698; [6]),MIC (S.s ATCC 15305; [7]),MIC (MRSA ATCC -BAA-976; [8]),MIC (MSSA 15; [9]),MIC (MSSE 16-5; [10]),MIC [1],further results
"COc1ccc2c(c[n+]3ccc4cc5c(c6c(Cc7ccccc7)cc2c3c46)OCO5)c1O [13a, 1,2-Methylenedioxy-8-hydroxy-9-methoxy-13-benzylcycloberberine chloride]",8 µg/mL,16 µg/mL,8 µg/mL,16 µg/mL,16 µg/mL,16 µg/mL,8 µg/mL,8 µg/mL,8 µg/mL,16 µg/mL,8 µg/mL,8 µg/mL,8 µg/mL,8 µg/mL,16 µg/mL,16 µg/mL,8 µg/mL,8 to 16 µg/mL,–
"COc1ccc2c(c[n+]3ccc4cc5c(c6c(Cc7ccc(Cl)cc7)cc2c3c46)OCO5)c1O [13e, 1,2-Methylenedioxy-8-hydroxy-9-methoxy-13-p-chlorobenzylcycloberberine chloride]",8 µg/mL,8 µg/mL,4 µg/mL,8 µg/mL,8 µg/mL,8 µg/mL,8 µg/mL,8 µg/mL,64 µg/mL,4 µg/mL,8 µg/mL,4 µg/mL,4 µg/mL,16 µg/mL,4 µg/mL,8 µg/mL,4 µg/mL,2 to 8 µg/mL,–
"COc1ccc2c(c[n+]3ccc4cc5c(c6c(Cc7cccc(C)c7)cc2c3c46)OCO5)c1O [13h, 1,2-Methylenedioxy-8-hydroxy-9-methoxy-13-m-methylbenzylcycloberberine chloride]",8 µg/mL,8 µg/mL,4 µg/mL,8 µg/mL,4 µg/mL,8 µg/mL,4 µg/mL,4 µg/mL,4 µg/mL,4 µg/mL,4 µg/mL,4 µg/mL,4 µg/mL,16 µg/mL,8 µg/mL,4 µg/mL,2 µg/mL,2 to 16 µg/mL,–
"CCOC(=O)[C@H](CCc1ccccc1)N[C@@H](C)C(=O)N1CCC[C@H]1C(=O)O [Ems, enalapril]",–,–,–,–,–,–,–,–,–,–,–,–,–,–,–,–,–,–,stability in whole blood (Stability in whole blood): completely decomposed; Rr (remaining ratio) (Stability in whole blood; 0 h): 100%; Rr (remaining ratio) (Stability in whole blood; 0.5 h): 37.5%; Rr (remaining ratio) (Stability in whole blood; 1 h): 9.1%; Rr (remaining ratio) (Stability in whole blood; 3 h): 0%; Rr (remaining ratio) (Stability in whole blood; 7 h): 0%; Rr (remaining ratio) (Stability in whole blood; 24 h): 0%
"COc1ccc2c(c[n+]3c4c2ccc2c5c(cc(c24)CC3)OCO5)c1O [compound 1, reference compound]",–,–,–,–,–,–,–,–,–,–,–,–,–,–,–,–,–,–,MIC (S.h ATCC 35982): 1 µg/mL; MIC (MRSA 13-18; MRSA): 1 µg/mL; MIC (MSSA 16-1; MSSA): 1 µg/mL; MIC (MRSA ATCC 43300): 0.5 µg/mL; MIC (MSSE ATCC 12228): 0.5 µg/mL; MIC (MRSA 13-23; MRSA): 1 µg/mL; MIC (VISA ATCC 700699): 0.5 µg/mL; MIC (MRSA ATCC-B AA-1708): 0.5 µg/mL; MIC (MRSE 13-3; MRSE): > 64 µg/mL; MIC (MRSE 16-5; MRSE): 0.5 µg/mL; MIC (MSSA ATCC 29213): 0.5 µg/mL; MIC (MRSA 16-34; MRSA): 0.5 µg/mL; MIC (VISA ATCC 700698): 1 µg/mL; MIC (S.s ATCC 15305): > 64 µg/mL; MIC (MRSA ATCC -BAA-976): 1 µg/mL; MIC (MSSA 15; MSSA): 4 µg/mL; MIC (MSSE 16-5): 0.5 µg/mL

# Further lines, with some results ahead:
MIC (S.h ATCC 35982; [2]),"MIC (MRSA 13-18; MRSA 13-18, read-out: MIC)",MIC (MSSA 16-1; [3]),"MIC (MRSA ATCC 43300; MRSA ATCC 43300, read-out: MIC)","MIC (MSSE ATCC 12228; MSSE ATCC 12228, read-out: MIC)","MIC (MRSA 13-23; MRSA 13-23, read-out: MIC)",MIC (VISA ATCC 700699; [4]),MIC (MRSA ATCC-B AA-1708; [5]),"MIC (MRSE 13-3; MRSE 13-3, read-out: MIC)","MIC (MRSE 16-5; MRSE 16-5, read-out: MIC)","MIC (MSSA ATCC 29213; MSSA ATCC 29213, read-out: MIC)","MIC (MRSA 16-34; MRSA 16-34, read-out: MIC)",MIC (VISA ATCC 700698; [6]),MIC (S.s ATCC 15305; [7]),MIC (MRSA ATCC -BAA-976; [8]),MIC (MSSA 15; [9]),MIC (MSSE 16-5; [10]),MIC [1],SMILES,further results
8 µg/mL,16 µg/mL,4 µg/mL,8 µg/mL,8 µg/mL,8 µg/mL,4 µg/mL,4 µg/mL,32 µg/mL,8 µg/mL,8 µg/mL,4 µg/mL,8 µg/mL,16 µg/mL,8 µg/mL,8 µg/mL,4 µg/mL,4 to 16 µg/mL,"COc1ccc2c(c[n+]3ccc4cc5c(c6c(Cc7ccccc7[N+](=O)[O-])cc2c3c46)OCO5)c1O [13p, 1,2-Methylenedioxy-8-hydroxy-9-methoxy-13-o-nitrobenzylcycloberberine chloride]",–
> 64 µg/mL,> 64 µg/mL,> 64 µg/mL,> 64 µg/mL,> 64 µg/mL,> 64 µg/mL,> 64 µg/mL,> 64 µg/mL,> 64 µg/mL,> 64 µg/mL,> 64 µg/mL,> 64 µg/mL,> 64 µg/mL,> 64 µg/mL,> 64 µg/mL,> 64 µg/mL,> 64 µg/mL,–,"COc1ccc2c(c[n+]3c4c2ccc2c5c(cc(c24)CC3)OCO5)c1OC [CBBR, cycloberberine]",bactericidal activity (MSSA/MRSA tested strains; MSSA/MRSA): no bactericidal activity at all; MICs (range over strains) (MSSA/MRSA tested strains; tested strains such as MRSA): > 64 µg/mL
> 64 µg/mL,> 64 µg/mL,> 64 µg/mL,> 64 µg/mL,> 64 µg/mL,> 64 µg/mL,> 64 µg/mL,> 64 µg/mL,> 64 µg/mL,> 64 µg/mL,> 64 µg/mL,> 64 µg/mL,> 64 µg/mL,> 64 µg/mL,> 64 µg/mL,> 64 µg/mL,> 64 µg/mL,–,"COc1ccc2c(c[n+]3c4c2ccc2c(OC)c(OC)cc(c24)CC3)c1O [compound 6, 1,2-Dimethoxy-8-hydroxy-9-methoxycycloberberine Chloride]",antimicrobial activity [1]: lost the antimicrobial activities partially or completely
32 µg/mL,32 µg/mL,32 µg/mL,32 µg/mL,8 µg/mL,64 µg/mL,32 µg/mL,16 µg/mL,32 µg/mL,16 µg/mL,32 µg/mL,16 µg/mL,32 µg/mL,32 µg/mL,64 µg/mL,16 µg/mL,16 µg/mL,–,"COc1ccc2c(c[n+]3c4c2ccc2c(O)c(O)cc(c24)CC3)c1O [compound 10, 1,2,8-Trihydroxy-9-methoxycycloberberine Chloride]",antimicrobial activity [1]: lost the antimicrobial activities partially or completely
